The values that follow come from paper PMC12736008, “New Dimethylpyridine-3-Carboxamide Derivatives as MMP-13 Inhibitors with Anticancer Activity” (Molecules, 2025).

The assay addresses T1, MMP-13 (Homo sapiens, UniProt P45452).
T1 construct: purchased Abcam ab139451
The experiment in a line: MMP-13 inhibitor screening assay kit (fluorometric). The class given is biochemical. The conditions noted are these: single-point screening; tested compounds 1.8 to 4.6 µM. As to the method: The inhibitory activity of the designed compounds against MMP-13 was evaluated using a commercial fluorometric MMP-13 inhibitor assay kit (Abcam, Cambridge, UK), following the manufacturer’s protocol. Solutions of the tested compounds were prepared at concentrations ranging from 1.8 to 4.6 µM. N-isobutyl-N-(4-methoxyphenylsulfonyl)glycyl hydroxamic acid (NNGH), a broad-spectrum inhibitor of matrix metalloproteinases, was used as positive control. […] In parallel, MMP-8 inhibition assays were also conducted using the same concentrations of compounds 3b, 3c, 3d, and 3g.
It should be emphasized that these assays were performed as single-point screening experiments, optimized for rapid qualitative assessment rather than full kinetic characterization. Consequently, the observed differences in activity between MMP-13 and MMP-8 are indicative trends supporting the selectivity predicted by computational studies, including docking, molecular dynamics simulations, and binding free energy calculations, rather than providing definitive quantitative evidence.
The inhibitory activity of the tested compounds was evaluated using the MMP-13 inhibitor screening assay kit (fluorometric) (Abcam, ab139451). The assay performed according to the manufacturer’s instructions. The designed compounds were tested at concentrations ranging from 1.8 to 4.6 µM, to determine their inhibitory activity. […]

Structures are written as SMILES.

In turn, `COc1ccc(S(=O)(=O)N(CC(=O)NO)CC(C)C)cc1` [NNGH, N-isobutyl-N-(4-methoxyphenylsulfonyl)glycyl hydroxamic acid, reference compound] displayed an MMP-13 activity inhibition of around 97%.
